System: NOMO1
Test: cell viability relative to DMSO control; higher = less cytotoxic
Details: 48 h
Procedure, shortened: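 Leukemia cells (NOMO1 or SEM, 500 cells/well; P12-Ichikawa, 1000 cells/well) were seeded in 5 μl in 1536-well plates after at least four passages of adaptation to each medium. They received library compounds in DMSO by pin dosing, 11 threefold points from 47 μM to 0.79 nM. Luminescence with CellTiter-Glo One was read after 48 h at 37°C. Viability is stated per plate relative to DMSO wells, with cell-free wells as background.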

[1] = HPLM + 10% dialyzed FBS, 0.000781 µM
[2] = HPLM + 10% dialyzed FBS, 0.00234 µM
[3] = HPLM + 10% dialyzed FBS, 0.00702 µM
[4] = HPLM + 10% dialyzed FBS, 0.0211 µM
[5] = HPLM + 10% dialyzed FBS, 0.0632 µM
[6] = HPLM + 10% dialyzed FBS, 0.19 µM
[7] = HPLM + 10% dialyzed FBS, 0.569 µM
[8] = HPLM + 10% dialyzed FBS, 1.71 µM
[9] = HPLM + 10% dialyzed FBS, 5.12 µM
[10] = HPLM + 10% dialyzed FBS, 15.4 µM
[11] = HPLM + 10% dialyzed FBS, 46.1 µM
[12] = RPMI 5 mM glucose + 10% FBS, 0.000781 µM
[13] = RPMI 5 mM glucose + 10% FBS, 0.00234 µM
[14] = RPMI 5 mM glucose + 10% FBS, 0.00702 µM
[15] = RPMI 5 mM glucose + 10% FBS, 0.0211 µM
[16] = RPMI 5 mM glucose + 10% FBS, 0.0632 µM
[17] = RPMI 5 mM glucose + 10% FBS, 0.19 µM
[18] = RPMI 5 mM glucose + 10% FBS, 0.569 µM
[19] = RPMI 5 mM glucose + 10% FBS, 1.71 µM
[20] = RPMI 5 mM glucose + 10% FBS, 5.12 µM
[21] = RPMI 5 mM glucose + 10% FBS, 15.4 µM
[22] = RPMI 5 mM glucose + 10% FBS, 46.1 µM
[23] = RPMI 5 mM glucose + 10% dialyzed FBS, 0.000781 µM
[24] = RPMI 5 mM glucose + 10% dialyzed FBS, 0.00234 µM
[25] = RPMI 5 mM glucose + 10% dialyzed FBS, 0.00702 µM
[26] = RPMI 5 mM glucose + 10% dialyzed FBS, 0.0211 µM
[27] = RPMI 5 mM glucose + 10% dialyzed FBS, 0.0632 µM
[28] = RPMI 5 mM glucose + 10% dialyzed FBS, 0.19 µM
[29] = RPMI 5 mM glucose + 10% dialyzed FBS, 0.569 µM
[30] = RPMI 5 mM glucose + 10% dialyzed FBS, 1.71 µM
[31] = RPMI 5 mM glucose + 10% dialyzed FBS, 5.12 µM
[32] = RPMI 5 mM glucose + 10% dialyzed FBS, 15.4 µM
[33] = RPMI 5 mM glucose + 10% dialyzed FBS, 46.1 µM

CC[C@H](C)[N]1C=C(C)C2=C1C=C(C=C2C(=O)NC\C3=C(C)\C=C(\C)NC3=O)C4=CC=C(N=C4)N5CCNCC5
cell viability [1]: 112% | cell viability [2]: 108% | cell viability [3]: 125% | cell viability [4]: 131% | cell viability [5]: 130% | cell viability [6]: 129% | cell viability [7]: 124% | cell viability [8]: 104% | cell viability [9]: 127% | cell viability [10]: 122% | cell viability [11]: 82.3% | cell viability [12]: 105% | cell viability [13]: 108% | cell viability [14]: 121% | cell viability [15]: 123% | cell viability [16]: 122% | cell viability [17]: 115% | cell viability [18]: 126% | cell viability [19]: 115% | cell viability [20]: 128% | cell viability [21]: 113% | cell viability [22]: 102% | cell viability [23]: 116% | cell viability [24]: 125% | cell viability [25]: 124% | cell viability [26]: 127% | cell viability [27]: 128% | cell viability [28]: 123% | cell viability [29]: 137% | cell viability [30]: 138% | cell viability [31]: 148% | cell viability [32]: 118% | cell viability [33]: 96.4%

N[C@H](CSC(c1ccccc1)(c1ccccc1)c1ccccc1)C(=O)O
cell viability [1]: 108% | cell viability [2]: 114% | cell viability [3]: 133% | cell viability [4]: 135% | cell viability [5]: 116% | cell viability [6]: 108% | cell viability [7]: 115% | cell viability [8]: 125% | cell viability [9]: 120% | cell viability [10]: 129% | cell viability [11]: 99.6% | cell viability [12]: 121% | cell viability [13]: 113% | cell viability [14]: 126% | cell viability [15]: 131% | cell viability [16]: 123% | cell viability [17]: 118% | cell viability [18]: 138% | cell viability [19]: 139% | cell viability [20]: 114% | cell viability [21]: 115% | cell viability [22]: 106% | cell viability [23]: 106% | cell viability [24]: 116% | cell viability [25]: 117% | cell viability [26]: 129% | cell viability [27]: 131% | cell viability [28]: 127% | cell viability [29]: 134% | cell viability [30]: 126% | cell viability [31]: 108% | cell viability [32]: 109% | cell viability [33]: 116%

CN1CCN(c2ccc([N+](=O)[O-])c3no[n+]([O-])c23)CC1
cell viability [1]: 86.5% | cell viability [2]: 101% | cell viability [3]: 110% | cell viability [4]: 114% | cell viability [5]: 107% | cell viability [6]: 111% | cell viability [7]: 100% | cell viability [8]: 105% | cell viability [9]: 116% | cell viability [10]: 86.6% | cell viability [11]: 56.6% | cell viability [12]: 88.4% | cell viability [13]: 99.6% | cell viability [14]: 87.6% | cell viability [15]: 93.3% | cell viability [16]: 92.9% | cell viability [17]: 103% | cell viability [18]: 89.5% | cell viability [19]: 85.1% | cell viability [20]: 94.1% | cell viability [21]: 83.9% | cell viability [22]: 68.1% | cell viability [23]: 81.5% | cell viability [24]: 78.1% | cell viability [25]: 91.3% | cell viability [26]: 85.6% | cell viability [27]: 96.1% | cell viability [28]: 95.6% | cell viability [29]: 92.5% | cell viability [30]: 95.9% | cell viability [31]: 86.6% | cell viability [32]: 87.4% | cell viability [33]: 72.4%

N#Cc1c(NC(=O)c2cccc3ccccc23)sc2c1CCCC2
cell viability [12]: 120% | cell viability [13]: 142% | cell viability [14]: 118% | cell viability [15]: 128% | cell viability [16]: 139% | cell viability [17]: 134% | cell viability [18]: 127% | cell viability [19]: 25.4% | cell viability [20]: 26.1% | cell viability [21]: 21.7% | cell viability [22]: 21%

CCN1\C=C(\C(O)=O)C(=O)C2=CC=C(C)N=C12
cell viability [1]: 75.3% | cell viability [2]: 87.7% | cell viability [3]: 99.4% | cell viability [4]: 103% | cell viability [5]: 102% | cell viability [6]: 116% | cell viability [7]: 95.8% | cell viability [8]: 100% | cell viability [9]: 81.7% | cell viability [10]: 88.1% | cell viability [11]: 47.4% | cell viability [12]: 81.9% | cell viability [13]: 103% | cell viability [14]: 98.2% | cell viability [15]: 89.1% | cell viability [16]: 103% | cell viability [17]: 96.6% | cell viability [18]: 100% | cell viability [19]: 91% | cell viability [20]: 99.9% | cell viability [21]: 90.6% | cell viability [22]: 56% | cell viability [23]: 66.6% | cell viability [24]: 76.6% | cell viability [25]: 71.2% | cell viability [26]: 80.1% | cell viability [27]: 83.2% | cell viability [28]: 83.5% | cell viability [29]: 80.5% | cell viability [30]: 89.5% | cell viability [31]: 82.5% | cell viability [32]: 81.6% | cell viability [33]: 61.7%

C/C=C(/C)C(=O)O[C@H]1C(C)=C[C@]23C(=O)[C@@H](C=C(CO)[C@@H](O)[C@]12O)[C@H]1[C@@H](C[C@H]3C)C1(C)C
cell viability [1]: 119% | cell viability [2]: 127% | cell viability [3]: 114% | cell viability [4]: 112% | cell viability [5]: 93.5% | cell viability [6]: 69% | cell viability [7]: 66.4% | cell viability [8]: 64.7% | cell viability [9]: 60.6% | cell viability [10]: 61.5% | cell viability [11]: 39.3% | cell viability [12]: 121% | cell viability [13]: 128% | cell viability [14]: 121% | cell viability [15]: 108% | cell viability [16]: 96% | cell viability [17]: 79.1% | cell viability [18]: 67.8% | cell viability [19]: 65.9% | cell viability [20]: 66.3% | cell viability [21]: 69.4% | cell viability [22]: 51.7%

CC(C)NC[C@@H](C(=O)N1CCN(c2ncnc3c2[C@H](C)C[C@H]3O)CC1)c1ccc(Cl)cc1
cell viability [1]: 115% | cell viability [2]: 115% | cell viability [3]: 119% | cell viability [4]: 117% | cell viability [5]: 109% | cell viability [6]: 103% | cell viability [7]: 109% | cell viability [8]: 110% | cell viability [9]: 79% | cell viability [10]: 51.4% | cell viability [11]: 18.6% | cell viability [12]: 109% | cell viability [13]: 121% | cell viability [14]: 109% | cell viability [15]: 100% | cell viability [16]: 111% | cell viability [17]: 109% | cell viability [18]: 107% | cell viability [19]: 105% | cell viability [20]: 102% | cell viability [21]: 73.8% | cell viability [22]: 47.8% | cell viability [23]: 124% | cell viability [24]: 89.2% | cell viability [25]: 115% | cell viability [26]: 100% | cell viability [27]: 103% | cell viability [28]: 100% | cell viability [29]: 108% | cell viability [30]: 87.8% | cell viability [31]: 81.6% | cell viability [32]: 57.6% | cell viability [33]: 43.1%

O=C(NC[C@H](O)CO)c1ccncc1Nc1ccc(I)cc1F
cell viability [1]: 94.7% | cell viability [2]: 98.5% | cell viability [3]: 90% | cell viability [4]: 93% | cell viability [5]: 82.2% | cell viability [6]: 60.9% | cell viability [7]: 53.2% | cell viability [8]: 56% | cell viability [9]: 49.2% | cell viability [10]: 38.6% | cell viability [11]: 40.4% | cell viability [12]: 103% | cell viability [13]: 101% | cell viability [14]: 111% | cell viability [15]: 90.8% | cell viability [16]: 65.2% | cell viability [17]: 61.7% | cell viability [18]: 52.6% | cell viability [19]: 51.6% | cell viability [20]: 47.6% | cell viability [21]: 37.9% | cell viability [22]: 6.49% | cell viability [23]: 88.3% | cell viability [24]: 96.1% | cell viability [25]: 93.6% | cell viability [26]: 81.1% | cell viability [27]: 72.2% | cell viability [28]: 61.9% | cell viability [29]: 52% | cell viability [30]: 49.1% | cell viability [31]: 41.6% | cell viability [32]: 38.9% | cell viability [33]: 39.3%

Reference: the supplement of paper PMC11451515
